Assay results: ChEMBL document CHEMBL1909294, “Translating clinical findings into knowledge in drug safety evaluation--drug induced liver injury prediction system (DILIps)” (PLoS Comput Biol, 2011)

Assays:
[1] = tested on: Hepatotoxicity;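 on HepSE Combined Scores: combined hepatic side effect score as listed in the training data of the Drug Induced Liver Injury Prediction System (DILIps)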;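 on HepSE cholelithiasis: hepatic side effect score for cholelithiasis, drawn from the DILIps training data for predicting drug-induced liver injury; call rule not given here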;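 on HepSE cirrhosis: cirrhosis hepatic side effect score taken from the DILIps (drug-induced liver injury prediction) training set; call rule not given here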;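 on HepSE elevated liver function tests: hepatic side effect score for raised liver function tests, as recorded in the DILIps training set used for predicting drug-induced liver injury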; on HepSE hepatic failure: call rule not given here;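 on HepSE hepatitis: Hepatitis-related hepatic side effect score taken from the training data of DILIps, a prediction system for drug-induced liver injury; call rule not given here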;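 on HepSE liver function tests abnormal: hepatic side effect score taken from the DILIps (drug-induced liver injury prediction system) training data, here covering abnormal liver function test findings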
[2] = tested on: Hepatotoxicity; remark: listed apart in the source;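 on HepSE cholelithiasis: hepatic side effect score for cholelithiasis, drawn from the DILIps training data for predicting drug-induced liver injury; call rule not given here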;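 on HepSE cirrhosis: cirrhosis hepatic side effect score taken from the DILIps (drug-induced liver injury prediction) training set; call rule not given here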;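 on HepSE elevated liver function tests: hepatic side effect score for raised liver function tests, as recorded in the DILIps training set used for predicting drug-induced liver injury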; on HepSE hepatic failure: call rule not given here;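 on HepSE hepatitis: Hepatitis-related hepatic side effect score taken from the training data of DILIps, a prediction system for drug-induced liver injury; call rule not given here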;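 on HepSE liver function tests abnormal: hepatic side effect score taken from the DILIps (drug-induced liver injury prediction system) training data, here covering abnormal liver function test findings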
[3] = tested on: Hepatotoxicity; remark: listed apart in the source;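 on HepSE cholelithiasis: hepatic side effect score for cholelithiasis, drawn from the DILIps training data for predicting drug-induced liver injury; call rule not given here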;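 on HepSE cirrhosis: cirrhosis hepatic side effect score taken from the DILIps (drug-induced liver injury prediction) training set; call rule not given here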;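 on HepSE elevated liver function tests: hepatic side effect score for raised liver function tests, as recorded in the DILIps training set used for predicting drug-induced liver injury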; on HepSE hepatic failure: call rule not given here;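 on HepSE hepatitis: Hepatitis-related hepatic side effect score taken from the training data of DILIps, a prediction system for drug-induced liver injury; call rule not given here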;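 on HepSE liver function tests abnormal: hepatic side effect score taken from the DILIps (drug-induced liver injury prediction system) training data, here covering abnormal liver function test findings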
[4] = tested on: Hepatotoxicity; remark: listed apart in the source;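 on HepSE cholelithiasis: hepatic side effect score for cholelithiasis, drawn from the DILIps training data for predicting drug-induced liver injury; call rule not given here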;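 on HepSE cirrhosis: cirrhosis hepatic side effect score taken from the DILIps (drug-induced liver injury prediction) training set; call rule not given here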;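 on HepSE elevated liver function tests: hepatic side effect score for raised liver function tests, as recorded in the DILIps training set used for predicting drug-induced liver injury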; on HepSE hepatic failure: call rule not given here;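 on HepSE hepatitis: Hepatitis-related hepatic side effect score taken from the training data of DILIps, a prediction system for drug-induced liver injury; call rule not given here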;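 on HepSE liver function tests abnormal: hepatic side effect score taken from the DILIps (drug-induced liver injury prediction system) training data, here covering abnormal liver function test findings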
[5] = tested on: Hepatotoxicity; remark: listed apart in the source; on HepSE hepatic failure: call rule not given here
[6] = tested on: Hepatotoxicity; remark: listed apart in the source; on HepSE hepatic failure: call rule not given here
[7] = tested on: Hepatotoxicity; remark: listed apart in the source
[8] = tested on: Hepatotoxicity; remark: listed apart in the source
[9] = tested on: Hepatotoxicity; remark: listed apart in the source
[10] = tested on: Hepatotoxicity; remark: listed apart in the source
[11] = tested on: Hepatotoxicity; remark: listed apart in the source
[12] = tested on: Hepatotoxicity; remark: listed apart in the source
[13] = tested on: Hepatotoxicity; remark: listed apart in the source
[14] = tested on: Hepatotoxicity; remark: listed apart in the source

## CC(C)N1CCN(c2ccc(OCC3COC(Cn4cncn4)(c4ccc(Cl)cc4Cl)O3)cc2)CC1 (configuration not stated) [TERCONAZOLE]
[1]
  HepSE_hepatitis: 0
[2]
  HepSE_hepatic failure: 0
[3]
  HepSE_elevated liver function tests: 0
[4]
  HepSE_cholelithiasis: 0
[5]
  HepSE_liver function tests abnormal: 0
[6]
  HepSE_cirrhosis: 0
[7]
  HepSE_bilirubinemia: 0
[8]
  HepSE_Combined Scores: 0
[9]
  HepSE_hepatic necrosis: 0
[10]
  HepSE_jaundice: 0
[11]
  HepSE_liver disease: 0
[12]
  HepSE_liver fatty: 0
[13]
  HepSE_hepatomegaly: 0
[14]
  HepSE_cholecystitis: 0

## C[C@]12CC[C@H]3[C@@H](CCC4=CC(=O)CC[C@@]43C)[C@@H]1CC[C@@H]2O [TESTOSTERONE]
[1]
  HepSE_hepatitis: 0
[2]
  HepSE_hepatic failure: 0
[3]
  HepSE_elevated liver function tests: 0
[4]
  HepSE_cholelithiasis: 0
[5]
  HepSE_liver function tests abnormal: 1
[6]
  HepSE_cirrhosis: 0
[7]
  HepSE_bilirubinemia: 0
[8]
  HepSE_Combined Scores: 2
[9]
  HepSE_hepatic necrosis: 0
[10]
  HepSE_jaundice: 1
[11]
  HepSE_liver disease: 0
[12]
  HepSE_liver fatty: 0
[13]
  HepSE_hepatomegaly: 0
[14]
  HepSE_cholecystitis: 0

## CN(C)[C@@H]1C(O)=C(C(N)=O)C(=O)[C@@]2(O)C(O)=C3C(=O)c4c(O)cccc4[C@@](C)(O)[C@H]3C[C@@H]12 [TETRACYCLINE]
[1]
  HepSE_hepatitis: 0
[2]
  HepSE_hepatic failure: 1
[3]
  HepSE_elevated liver function tests: 0
[4]
  HepSE_cholelithiasis: 0
[5]
  HepSE_liver function tests abnormal: 0
[6]
  HepSE_cirrhosis: 0
[7]
  HepSE_bilirubinemia: 0
[8]
  HepSE_Combined Scores: 1
[9]
  HepSE_hepatic necrosis: 0
[10]
  HepSE_jaundice: 0
[11]
  HepSE_liver disease: 0
[12]
  HepSE_liver fatty: 0
[13]
  HepSE_hepatomegaly: 0
[14]
  HepSE_cholecystitis: 0

## c1ccc2c(c1)CCCC2C1=NCCN1 (configuration not stated) [TETRAHYDROZOLINE]
[1]
  HepSE_hepatitis: 0
[2]
  HepSE_hepatic failure: 0
[3]
  HepSE_elevated liver function tests: 0
[4]
  HepSE_cholelithiasis: 0
[5]
  HepSE_liver function tests abnormal: 0
[6]
  HepSE_cirrhosis: 0
[7]
  HepSE_bilirubinemia: 0
[8]
  HepSE_Combined Scores: 0
[9]
  HepSE_hepatic necrosis: 0
[10]
  HepSE_jaundice: 0
[11]
  HepSE_liver disease: 0
[12]
  HepSE_liver fatty: 0
[13]
  HepSE_hepatomegaly: 0
[14]
  HepSE_cholecystitis: 0

## O=C1CCC(N2C(=O)c3ccccc3C2=O)C(=O)N1 (configuration not stated) [THALIDOMIDE]
[1]
  HepSE_hepatitis: 1
[2]
  HepSE_hepatic failure: 0
[3]
  HepSE_elevated liver function tests: 0
[4]
  HepSE_cholelithiasis: 0
[5]
  HepSE_liver function tests abnormal: 0
[6]
  HepSE_cirrhosis: 0
[7]
  HepSE_bilirubinemia: 1
[8]
  HepSE_Combined Scores: 4
[9]
  HepSE_hepatic necrosis: 0
[10]
  HepSE_jaundice: 1
[11]
  HepSE_liver disease: 0
[12]
  HepSE_liver fatty: 0
[13]
  HepSE_hepatomegaly: 1
[14]
  HepSE_cholecystitis: 0

## Cn1c(=O)c2[nH]cnc2n(C)c1=O.O [THEOPHYLLINE]
[1]
  HepSE_hepatitis: 0
[2]
  HepSE_hepatic failure: 0
[3]
  HepSE_elevated liver function tests: 0
[4]
  HepSE_cholelithiasis: 0
[5]
  HepSE_liver function tests abnormal: 0
[6]
  HepSE_cirrhosis: 0
[7]
  HepSE_bilirubinemia: 0
[8]
  HepSE_Combined Scores: 0
[9]
  HepSE_hepatic necrosis: 0
[10]
  HepSE_jaundice: 0
[11]
  HepSE_liver disease: 0
[12]
  HepSE_liver fatty: 0
[13]
  HepSE_hepatomegaly: 0
[14]
  HepSE_cholecystitis: 0

## c1ccc2[nH]c(-c3cscn3)nc2c1 [THIABENDAZOLE]
[1]
  HepSE_hepatitis: 0
[2]
  HepSE_hepatic failure: 1
[3]
  HepSE_elevated liver function tests: 0
[4]
  HepSE_cholelithiasis: 0
[5]
  HepSE_liver function tests abnormal: 0
[6]
  HepSE_cirrhosis: 0
[7]
  HepSE_bilirubinemia: 0
[8]
  HepSE_Combined Scores: 2
[9]
  HepSE_hepatic necrosis: 0
[10]
  HepSE_jaundice: 1
[11]
  HepSE_liver disease: 0
[12]
  HepSE_liver fatty: 0
[13]
  HepSE_hepatomegaly: 0
[14]
  HepSE_cholecystitis: 0

## CSc1ccc2c(c1)N(CCC1CCCCN1C)c1ccccc1S2 (configuration not stated) [THIORIDAZINE]
[1]
  HepSE_hepatitis: 0
[2]
  HepSE_hepatic failure: 0
[3]
  HepSE_elevated liver function tests: 0
[4]
  HepSE_cholelithiasis: 0
[5]
  HepSE_liver function tests abnormal: 0
[6]
  HepSE_cirrhosis: 0
[7]
  HepSE_bilirubinemia: 0
[8]
  HepSE_Combined Scores: 1
[9]
  HepSE_hepatic necrosis: 0
[10]
  HepSE_jaundice: 1
[11]
  HepSE_liver disease: 0
[12]
  HepSE_liver fatty: 0
[13]
  HepSE_hepatomegaly: 0
[14]
  HepSE_cholecystitis: 0

## S=P(N1CC1)(N1CC1)N1CC1 [THIOTEPA]
[1]
  HepSE_hepatitis: 0
[2]
  HepSE_hepatic failure: 0
[3]
  HepSE_elevated liver function tests: 0
[4]
  HepSE_cholelithiasis: 0
[5]
  HepSE_liver function tests abnormal: 0
[6]
  HepSE_cirrhosis: 0
[7]
  HepSE_bilirubinemia: 1
[8]
  HepSE_Combined Scores: 1
[9]
  HepSE_hepatic necrosis: 0
[10]
  HepSE_jaundice: 0
[11]
  HepSE_liver disease: 0
[12]
  HepSE_liver fatty: 0
[13]
  HepSE_hepatomegaly: 0
[14]
  HepSE_cholecystitis: 0

## Cc1ccsc1C(=CCCN1CCC[C@@H](C(=O)O)C1)c1sccc1C [TIAGABINE]
[1]
  HepSE_hepatitis: 0
[2]
  HepSE_hepatic failure: 0
[3]
  HepSE_elevated liver function tests: 0
[4]
  HepSE_cholelithiasis: 1
[5]
  HepSE_liver function tests abnormal: 1
[6]
  HepSE_cirrhosis: 0
[7]
  HepSE_bilirubinemia: 0
[8]
  HepSE_Combined Scores: 4
[9]
  HepSE_hepatic necrosis: 0
[10]
  HepSE_jaundice: 0
[11]
  HepSE_liver disease: 0
[12]
  HepSE_liver fatty: 0
[13]
  HepSE_hepatomegaly: 1
[14]
  HepSE_cholecystitis: 1

## Clc1ccccc1CN1CCc2sccc2C1 [TICLOPIDINE]
[1]; Liver
  HepSE_hepatitis: 1
[2]; Liver
  HepSE_hepatic failure: 1
[3]; Liver
  HepSE_elevated liver function tests: 0
[4]; Liver
  HepSE_cholelithiasis: 0
[5]; Liver
  HepSE_liver function tests abnormal: 0
[6]; Liver
  HepSE_cirrhosis: 0
[7]; Liver
  HepSE_bilirubinemia: 0
[8]; Liver
  HepSE_Combined Scores: 4
[9]; Liver
  HepSE_hepatic necrosis: 1
[10]; Liver
  HepSE_jaundice: 1
[11]; Liver
  HepSE_liver disease: 0
[12]; Liver
  HepSE_liver fatty: 0
[13]; Liver
  HepSE_hepatomegaly: 0
[14]; Liver
  HepSE_cholecystitis: 0

## CN(C)c1cc(NC(=O)CNC(C)(C)C)c(O)c2c1C[C@H]1C[C@H]3[C@H](N(C)C)C(O)=C(C(N)=O)C(=O)[C@@]3(O)C(O)=C1C2=O [TIGECYCLINE]
[1]
  HepSE_hepatitis: 0
[2]
  HepSE_hepatic failure: 1
[3]
  HepSE_elevated liver function tests: 0
[4]
  HepSE_cholelithiasis: 0
[5]
  HepSE_liver function tests abnormal: 1
[6]
  HepSE_cirrhosis: 0
[7]
  HepSE_bilirubinemia: 1
[8]
  HepSE_Combined Scores: 4
[9]
  HepSE_hepatic necrosis: 0
[10]
  HepSE_jaundice: 1
[11]
  HepSE_liver disease: 0
[12]
  HepSE_liver fatty: 0
[13]
  HepSE_hepatomegaly: 0
[14]
  HepSE_cholecystitis: 0

## O=P(O)(O)C(Sc1ccc(Cl)cc1)P(=O)(O)O [TILUDRONIC ACID]
[1]
  HepSE_hepatitis: 0
[2]
  HepSE_hepatic failure: 0
[3]
  HepSE_elevated liver function tests: 0
[4]
  HepSE_cholelithiasis: 0
[5]
  HepSE_liver function tests abnormal: 0
[6]
  HepSE_cirrhosis: 0
[7]
  HepSE_bilirubinemia: 0
[8]
  HepSE_Combined Scores: 0
[9]
  HepSE_hepatic necrosis: 0
[10]
  HepSE_jaundice: 0
[11]
  HepSE_liver disease: 0
[12]
  HepSE_liver fatty: 0
[13]
  HepSE_hepatomegaly: 0
[14]
  HepSE_cholecystitis: 0
